As usually defined, the pKi is the Ki on a negative log10 scale, so that one unit is a factor of ten. The low end stands for a large Ki, the high end for a small Ki. Usually IC90 stands for the concentration at which the effect reaches the 90% level.

The structures appear in SMILES notation. pKi: −log10 of the molar value.

Among the data in patent publication US5543517A, “Substituted bicyclic phosphoramides and derivatives thereof” (The DuPont Merck Pharmaceutical Company, priority 1994, dated 1996) are Ki and IC90 values, retold here.

In assay [1] the target is T1, HIV-1 protease (HIV-1 M:B_HXB2R, UniProt P04585).
T1 construct: cut from Gag-Pol polyprotein
Briefly: HIV protease inhibition assay (HPLC method). Format: biochemical. The following applies: pH 5.5, 30° C., 1 hr. The procedure: The Ki values in TABLE 1 were determined using the assay conditions described below under HIV Protease Inhibition Assay (HPLC Method). The Ki values are indicated as follows: +++=<10 nM; ++=10 nM to 1 μM; +=>[…].
HIV PROTEASE INHIBITION ASSAY (HPLC METHOD)
Protease: Inclusion bodies of E. coli harboring plasmid T1718R with a synthetic gene coding for a single-chain tethered dimer of HIV protease were prepared as described in Cheng et al. Proc. Natl. Acad. Sci. USA 1990, 87, 9660. Active protease was prepared as described therein by extraction with 67% acetic acid, dilution 33-fold with water, dialysis against water and then against a "refolding buffer" comprising 20 mM MES, 1 mM dithiothreitol and 10% glycerol, pH 5.5. Protease was stored as a stock preparation at 10 uM in refolding buffer.
Substrate: Peptide of the sequence aminobenzoyl-Ala-Thr-His-Gln-Val-Tyr-Phe(NO2)-Val-Arg-Lys-Ala containing p-nitrophenylalanine (Phe(NO2)), was prepared by solid phase synthesis as previously described (Cheng et al. Proc. Natl. Acad. Sci. USA 1990, 87, 9660). Stock solutions of 2 mM substrate were prepared in DMSO.
Inhibitory compounds were dissolved in sufficient DMSO to make 3 mM stock solutions. All further dilutions were prepared in "assay buffer" comprising 1M NaCl, 50 mM MES, pH 5.5, 1 mM EDTA, 1 mM DTT and 20% glycerol.
Enzyme reaction: To a 2 mL screw-cap centrifuge tube were added 50 uL protease (final concentration 0.25 nM) and 0.1 mL inhibitor compound (final concentration 0.1-12,500 nM). After 15 min preincubation at room temperature, the reaction was started by the addition of 0.05 mL substrate (final concentration 5 uM). Incubation was carried out at 30° C. for 1 hr. The reaction was stopped by addition of 1 mL of 0.1M ammonium hydroxide solution.
HPLC measurement of product formation: The product (aminobenzoyl-Ala-Thr-His-Gln-Val-Tyr) was separated from substrate on a Pharmacia MonoQ anion exchange column. The injection volume was 0.2 mL. The mobile phases comprised: solution A (20 mM tris HCl, pH 9.0, 0.02% sodium azide, 10% acetonitrile), and solution B (20 mM tris HCl, pH 9.0, 0.02% sodium azide, 0.5M ammonium formate, 10% acetonitrile). The mobile phases were pumped at 1 mL/min, with a gradient from 0 to 30% B in 5 min, 100% B for 4 min to wash the column, and a re-equilibration wash with A for 4 min. The retention time of the product was 3.6 min. Detection with a Shimadzu model RF535 fluorescence monitor was at 330 nm (excitation) and 430 nm (emission). The Ki was calculated from the formula Ki=I/(((Km+S-FA*S)/(FA*Km))-1) where I=inhibitor concentration, S=substrate concentration, FA=fractional activity=cm peak height with inhibitor/cm peak height without inhibitor and Km=Michaelis constant=20 uM.

Assay [2] deals with HIV (3B) or HIV (RF). Briefly: HIV yield reduction cell assay (plaque assay, MT-2 cells). The format is cell-based. Conditions: Human immunodeficiency virus 1, MT2, 72 h, 3 days. Here is the method: HIV YIELD REDUCTION CELL ASSAY
The following procedure is additionally described in Smallheer et al. Antiviral Chemistry and Chemotherapy 1993, 4(1), 27.
MT-2, a human T-cell line, was cultured in RPMI medium supplemented with 5% (v/v) heat inactivated fetal calf serum (FCS), 2 mM L-glutamine and 50 μg/mL gentamycin (later two compounds available from Gibco) Human immunodeficiency virus strains, HIV (3B) and HIV (RF) were propagated in H-9 cells in RPMI with 5% FCS. Poly-L-lysine (Sigma) coated cell culture plates were prepared according to the method of Harada et al. Science 1985, 229 563. MTT, (3-(4,5-dimethyl-thiazol-2-yl)-2,5-diphenyltetrazolium bromide), was obtained from Sigma.
Method: Test compounds were dissolved in dimethylsulfoxide to 5 mg/mL and serially diluted into RPMI medium to ten times the desired final concentration. […]
The virus titers of the progeny virus produced in the presence or absence of test compounds were determined by plaque assay. […] Clear plaques on a purple background were counted and the number of plaque forming units of virus was calculated for each sample. The antiviral activity of test compounds was determined by the percent reduction in the virus titer with respect to virus grown in the absence of inhibitor. The IC90 values in TABLE 2 were determined using the assay conditions described above under HIV Yield Reduction Assay. […]

Consider `O=P12O[C@H]([C@@H](O)[C@@H](Cc3ccccc3)N1Cc1ccc(CO)cc1)[C@@H](Cc1ccccc1)N2Cc1ccc(CO)cc1` [Example 5C, (3-endo,4-endo,6-exo)-2,7-Bis(4-(hydroxymethyl)phenylmethyl)-3,6-bis(phenylmethyl)-8-oxa-2,7-diaza-1-phosphabicyclo[3.2.1]octan-4-ol 1-oxide], for which the pKi in assay [1] was > 8.00. For the same molecule, the IC90 in assay [2] is < 10 µg/mL.
